Our source for the IC50 values is US10183950B2, “Thienopyrimidine inhibitors of atypical protein kinase C” (Cancer Research Technology Limited, priority 2011, dated 2019).

This assay deals with T1, kinase-domain human PKCι (Homo sapiens, UniProt P41743).
T1 construct: Recombinant, kinase-domain human PKCι is expressed and purified in-house; made in house
T1 sequence (P41743 254-522 limits assumed): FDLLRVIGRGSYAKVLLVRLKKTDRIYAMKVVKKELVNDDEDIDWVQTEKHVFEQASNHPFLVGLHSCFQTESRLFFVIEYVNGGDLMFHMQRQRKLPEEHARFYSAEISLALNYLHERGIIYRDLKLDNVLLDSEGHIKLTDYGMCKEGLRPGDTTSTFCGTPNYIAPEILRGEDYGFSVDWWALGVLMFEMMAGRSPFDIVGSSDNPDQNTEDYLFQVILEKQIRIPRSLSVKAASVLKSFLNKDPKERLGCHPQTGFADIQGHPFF
In words: PKCι IC50 IMAP fluorescence polarisation assay, kinase-domain enzyme. It counts as biochemical. Particulars: kinase domain PKCi at 2 μM ATP; read-out: IC50 in IMAP assay against kinase domain PKCi.

For the compound `Cc1csc2c(NCCN)nc(-c3ccncc3)nc12` [compound 370, N*1*-(7-Methyl-2-pyridin-4-yl-thieno[3,2-d]pyrimidin-4-yl)-ethane-1,2-diamine], the IC50 was in the range of 0.1 to 1 µM.

Consider `Clc1cccc2sc3c(N4CCCNCC4)nc(-c4ccncc4)nc3c12` [compound 371, 9-Chloro-4-[1,4]diazepan-1-yl-2-pyridin-4-yl-benzo[4,5]thieno[3,2-d]pyrimidine], for which the IC50 fell in the range of 0.1 to 1 µM.

For `N[C@H](CNc1nc(-c2ccncc2)nc2c1sc1cccc(Cl)c12)Cc1ccccc1` [compound 372, (S)-N*1*-(9-Chloro-2-pyridin-4-yl-benzo[4,5]thieno[3,2-d]pyrimidin-4-yl)-3-phenyl-propane-1,2-diamine], the IC50 was in the range of 0.1 to 1 µM.

For the compound `C[C@H](N)CNc1nc(-c2ccncc2)nc2c1sc1cccc(Cl)c12` [compound 373, (S)-N*1*-(9-Chloro-2-pyridin-4-yl-benzo[4,5]thieno[3,2-d]pyrimidin-4-yl)-propane-1,2-diamine], the half-maximal inhibitory concentration (IC50) is 0.1 to 1 µM.

Take `C[C@@H](N)CNc1nc(-c2ccncc2)nc2c1sc1cccc(Cl)c12` [compound 374, (R)-N*1*-(9-Chloro-2-pyridin-4-yl-benzo[4,5]thieno[3,2-d]pyrimidin-4-yl)-propane-1,2-diamine]: the IC50 was in the range of 0.1 to 1 µM.

Regarding `NCCNc1nc(-c2ccncc2)nc2c1sc1ncccc12` [compound 375, N*1*-(2-Pyridin-4-yl-pyrido[3′,2′:4,5]thieno[3,2-d]pyrimidin-4-yl)-ethane-1,2-diamine], the IC50 lay in the range of 1 to 10 µM.

`c1cnc2sc3c(N4CCNCC4)nc(-c4ccncc4)nc3c2c1` [compound 376, 4-Piperazin-1-yl-2-pyridin-4-yl-pyrido[3′,2′:4,5]thieno[3,2-d]pyrimidine]: the IC50 lay within 10 to 40 µM.

Regarding `c1cnc2sc3c(N4CCCNCC4)nc(-c4ccncc4)nc3c2c1` [compound 377, 4-[1,4]Diazepan-1-yl-2-pyridin-4-yl-pyrido[3′,2′:4,5]thieno[3,2-d]pyrimidine], the IC50 fell in the range of 1 to 10 µM.

In the case of `C[C@H](N)CNc1nc(-c2ccncc2)nc2c1sc1ncccc12` [compound 378, (S)-N*1*-(2-Pyridin-4-yl-pyrido[3′,2′:4,5]thieno[3,2-d]pyrimidin-4-yl)-propane-1,2-diamine], the IC50 lay in the range of 1 to 10 µM.

`C[C@@H](N)CNc1nc(-c2ccncc2)nc2c1sc1ncccc12` [compound 379, (R)-N*1*-(2-Pyridin-4-yl-pyrido[3′,2′:4,5]thieno[3,2-d]pyrimidin-4-yl)-propane-1,2-diamine]: the IC50 lay in the range of 10 to 40 µM.

As for `Cc1cc(C)c2c(n1)sc1c(N3CCNCC3)nc(-c3ccncc3)nc12` [compound 380, 7,9-Dimethyl-4-piperazin-1-yl-2-pyridin-4-yl-pyrido[3′,2′:4,5]thieno[3,2-d]pyrimidine], the IC50 lay in the range of 1 to 10 µM.

As for `Cc1cc(C)c2c(n1)sc1c(N3CCCNCC3)nc(-c3ccncc3)nc12` [compound 381, 4-[1,4]Diazepan-1-yl-7,9-dimethyl-2-pyridin-4-yl-pyrido[3′,2′:4,5]thieno[3,2-d]pyrimidine], the IC50 lay in the range of 1 to 10 µM.

Consider `Cc1cc(C)c2c(n1)sc1c(NC[C@H](C)N)nc(-c3ccncc3)nc12` [compound 382, (S)-N*1*-(7,9-Dimethyl-2-pyridin-4-yl-pyrido[3′,2′:4,5]thieno[3,2-d]pyrimidin-4-yl)-propane-1,2-diamine], for which the IC50 lay in the range of 0.1 to 1 µM.

On to `Cc1cc(C)c2c(n1)sc1c(NC[C@@H](C)N)nc(-c3ccncc3)nc12` [compound 383, (R)-N*1*-(7,9-Dimethyl-2-pyridin-4-yl-pyrido[3′,2′:4,5]thieno[3,2-d]pyrimidin-4-yl)-propane-1,2-diamine], for which the IC50 lay in the range of 1 to 10 µM.

As for `Clc1cccc2sc3c(N[C@@H]4CCNC4)nc(-c4ccncc4)nc3c12` [compound 384, (9-Chloro-2-pyridin-4-yl-benzo[4,5]thieno[3,2-d]pyrimidin-4-yl)-(R)-pyrrolidin-3-yl-amine], the IC50 lay in the range of 1 to 10 µM.

For the compound `CN(CCN)c1nc(-c2ccncc2)nc2c1sc1cccc(Cl)c12` [compound 385, N*1*-(9-Chloro-2-pyridin-4-yl-benzo[4,5]thieno[3,2-d]pyrimidin-4-yl)-N*1*- methyl-ethane-1,2-diamine], the IC50 was in the range of 1 to 10 µM.

Regarding `NCCNc1nc(-c2ccncc2)nc2c1sc1cccc(Cl)c12` [compound 386, N*1*-(9-Chloro-2-pyridin-4-yl-benzo[4,5]thieno[3,2-d]pyrimidin-4-yl)-ethane-1,2-diamine], the IC50 was 0.1 to 1 µM.

In the case of `Clc1cccc2sc3c(N4CCNCC4)nc(-c4ccncc4)nc3c12` [compound 387, 9-Chloro-4-piperazin-1-yl-2-pyridin-4-yl-benzo[4,5]thieno[3,2-d]pyrimidine], the IC50 was in the range of 0.1 to 1 µM.

For `Cc1csc2c(OC[C@H]3CCCN3)nc(-c3ccncc3)nc12` [compound 476, 7-methyl-2-pyridin-4-yl-4-((R)-1-pyrrolidin-2-ylmethoxy)-thieno[3,2-d]pyrimidine], the concentration for half-maximal inhibition (IC50) is 10 to 40 µM.

For `N[C@@H](COc1nc(-c2ccncc2)nc2c1sc1cccc(Cl)c12)Cc1ccccc1` [compound 477, (R)-1-(9-Chloro-2-pyridin-4-yl-benzo[4,5]thieno[3,2-d]pyrimidin-4-yloxymethyl)-2-phenyl-ethylamine], the IC50 lay within 10 to 40 µM.

As to `Clc1cccc2sc3c(OC[C@H]4CCCN4)nc(-c4ccncc4)nc3c12` [compound 478, 9-Chloro-2-pyridin-4-yl-4-((R)-1-pyrrolidin-2-ylmethoxy)-benzo[4,5]thieno[3,2-d]pyrimidine], the half-maximal inhibitory concentration (IC50) was 10 to 40 µM.

For the compound `Clc1cccc2sc3c(OC[C@@H]4CCCN4)nc(-c4ccncc4)nc3c12` [compound 479, 9-Chloro-2-pyridin-4-yl-4-((S)-1-pyrrolidin-2-ylmethoxy)-benzo[4,5]thieno[3,2-d]pyrimidine], the IC50 lay within 1 to 10 µM.

Turning to `Cc1csc2c(OC[C@@H]3CCCN3)nc(-c3ccncc3)nc12` [compound 480, 7-Methyl-2-pyridin-4-yl-4-((S)-1-pyrrolidin-2-ylmethoxy)-thieno[3,2-d]pyrimidine], the IC50 fell in the range of 10 to 40 µM.

With `Cc1csc2c(OC[C@@H](N)Cc3ccccc3)nc(-c3ccncc3)nc12` [compound 481, (S)-1-(7-Methyl-2-pyridin-4-yl-thieno[3,2-d]pyrimidin-4-yloxymethyl)-2-phenyl-ethylamine], the IC50 lay in the range of 10 to 40 µM.

With `Cc1csc2c(OC[C@H](N)Cc3ccccc3)nc(-c3ccncc3)nc12` [compound 482, (R)-1-(7-Methyl-2-pyridin-4-yl-thieno[3,2-d]pyrimidin-4-yloxymethyl)-2-phenyl-ethylamine], the IC50 was in the range of 10 to 40 µM.

Regarding `Cc1csc2c(O[C@H]3CCNC3)nc(-c3ccncc3)nc12` [compound 483, 7-Methyl-2-pyridin-4-yl-4-((S)-pyrrolidin-3-yloxy)-thieno[3,2-d]pyrimidine], the IC50 lay within 10 to 40 µM.

Turning to `Cc1csc2c(O[C@@H]3CCNC3)nc(-c3ccncc3)nc12` [compound 484, 7-Methyl-2-pyridin-4-yl-4-((R)-pyrrolidin-3-yloxy)-thieno[3,2-d]pyrimidine], the IC50 is 1 to 10 µM.
